Results published in patent publication US20150181901A1, “Compositions and Methods for Tissue Storage” (priority 2012, published 2015).
Where “and” joins values, the source holds several entries; their conditions need not be identical. Equal values may be shown once.

Columns and labels:
[1] = Freeze/thaw cycling of meat soaked in trehalose solution: fluid loss and weight loss (pork); details: for weight loss: post 3 freeze/thaw cycles, first week (FIG. 4), 0% trehalose about 10%
Procedure: (§1) Variables included the high and low temperatures of the temperature range, and frequency of the freeze/thaw cycles. In one embodiment, treated meat samples were placed in a minus 40 degrees C. freezer for 24 hours, followed by room temperature for 6 hours, which was followed by 18 hours at 0.5 to 5.0 degrees C., in a refrigerator. This cycle was immediately followed by minus 40 degrees C. freezer for 24 h, room temperature for 6 h, which was followed by 18 hours at 0.5 to 5.0 degrees C., in a refrigerator. Chicken breast fillet, pork chops, and London broil beef, were obtained from local suppliers and were cut in water. Each type of meat was cut into four even-sized pieces, and the weight was recorded. Each piece was immersed separately in either water or in test solution, e.g., trehalose or saline, for 12 h. The meat was removed from the water, and excess water was blotted off. Place each sample in a Ziploc® plastic bag. Weights were recorded. The weighed samples were set in a container, and placed in a freezer, where each sample was at the same level (same level relative to the floor of the freezer). The freezer (minus 40 degrees C.) was Puffer Hubbard Model #4017A-U-A, Harris Manufacturing Co., North Billerica, Mass. […] Then, the following steps were used: Repeat Steps 1 to 4 until a total of 14 days have passed. Step 1. After 24 h in the freezer, remove the container bearing all of the samples. Take photographs of the samples and record the date. Thawing occurs when the meat is taken from the freezer and left in the refrigerator. Although the meat is completely thawed prior to 24 hours of incubation in the refrigerator, the time of 24 hours was used to standardize the procedure. Step 2. Place all samples (still in the same container) in refrigerator. Step 3. After in the refrigerator 24 h, then remove the container with all the samples, and take photos and record the date. Step 4. Place samples, still in the same container, in the freezer. As mentioned above, repeat Steps 1 to 4 until a total of 14 days have passed. Step 5. After the last sample photos were taken, samples were removed from its bag, and the weight was recorded after removing excess ice from the sample. The ice is left in the bag. Replace sample in Ziploc® bag. Place all bags at room temperature until all the ice has melted, and pour fluid into clear plastic tube with graduated side (fluid from each bag), and record the volumes of the fluid. Alternatively, volume can be determined with a pipette. Step 6. Place all weighed meat samples into the same Ziploc® bag, and place back in the refrigerator to thaw. After thawing, remove the meat samples from each bag, and pour excess fluid into graduated cylinder tubes (the tubes that held the ice that had melted), and record additional volumes. Between the first week (three freeze/thaw cycles) and the second week (three more freeze/thaw cycles), there was no re-exposure to trehalose. All samples were removed from the refrigerator. Liquid was in most of the sample bags. Fluid was removed by a pipette and the volume was recorded, and the meat sample was weighed. Samples of about 1-2 grams were taken using a no. 10 scalpel, and placed in formalin. FIG. 6 discloses the volume of fluid lost during the second week of freeze/thaw cycles.

[2] = Freeze/thaw cycling of meat soaked in trehalose solution: fluid loss and weight loss (chicken)
Procedure: as §1

[3] = Freeze/thaw cycling of meat soaked in trehalose solution: fluid loss and weight loss (beef); details: for weight loss: post 3 freeze/thaw cycles, first week (FIG. 4), 0% trehalose about 18%
Procedure: as §1

[4] = 0%, 5%, 10%, 15% trehalose, three freeze/thaw cycles, first week (FIG. 1)
[5] = cumulative, first and second week (FIG. 12)
[6] = second week of freeze/thaw cycles (FIG. 8)
[7] = second week of freeze/thaw cycles, no re-exposure to trehalose

## OC[C@H]1O[C@H](O[C@H]2O[C@H](CO)[C@@H](O)[C@H](O)[C@H]2O)[C@H](O)[C@@H](O)[C@@H]1O [trehalose, trehalose dihydride]
[1]; [4]
  effect of trehalose concentration on volume of fluid lost: Increasing the concentration of trehalose resulted in decreasing volumes of fluid lost
[1]; 15% trehalose, first week (FIG. 5), 0% trehalose 1.0
  loss of water/10 grams of meat: 0.4 mL/10 grams of meat
[1]; [5]
  trehalose concentration with maximal effect on cumulative weight loss: 15%
[1]; first week (FIG. 18)
  effect of trehalose on weight loss: reduction was progressively effective for 5%, 10%, and 15% trehalose
[1]; second week (FIG. 18)
  effect of trehalose on weight loss: weight reduction seemed to plateau when trehalose was in the range of 5-15% trehalose
[1]; [6]
  trehalose concentration with lowest weight loss: 5% (or 15%)
[1]; [7]
  trehalose concentration with maximal effect on reducing fluid loss: 15%
[1]; soaked in 5% trehalose
  weight loss: about 9%
[1]; soaked in 10% trehalose
  weight loss: about 8%
[1]; soaked in 15% trehalose
  weight loss: about 5%
[2]; chicken, 15% trehalose, first week (FIG. 5), 0% trehalose about 1.8
  loss of water/10 grams of meat: 0.47 mL/10 grams of meat
[2]; chicken, cumulative, first and second week (FIG. 12)
  trehalose concentration with maximal effect on cumulative weight loss: 15%
[2]; chicken, first week (FIG. 17)
  effect of trehalose on weight loss: reduction was about the same (plateau in trehalose effect) for 5%, 10%, and 15% trehalose
[2]; chicken, second week (FIG. 17)
  effect of trehalose on weight loss: weight reduction by trehalose was only found at 10% and 15% trehalose
[2]; chicken, second week of freeze/thaw cycles (FIG. 8)
  trehalose concentration with lowest weight loss: 15%
[2]; chicken, second week of freeze/thaw cycles, no re-exposure to trehalose
  trehalose concentration with maximal effect on reducing fluid loss: 15%
[2]; chicken, soaked in 5%, 10%, or 15% trehalose, post-soak weight vs post 3 freeze/thaw cycles, first week (FIG. 4), 0% trehalose 18%
  weight loss: 10-11%
[2]; poultry, 0%, 5%, 10%, 15% trehalose, three freeze/thaw cycles, first week (FIG. 1)
  effect of trehalose concentration on volume of fluid lost: Increasing the concentration of trehalose resulted in decreasing volumes of fluid lost
[3]; [4]
  effect of trehalose concentration on volume of fluid lost: Increasing the concentration of trehalose resulted in decreasing volumes of fluid lost
[3]; 10% trehalose, first week (FIG. 5), 0% trehalose about 1.8
  loss of water/10 grams of meat: about 0.9 mL/10 grams of meat
[3]; at each respective trehalose value (FIG. 16)
  fluid loss for the first week relative to fluid loss for the second week: 2-3 times
[3]; cumulative, first and second week
  trehalose concentration with maximal reduction in cumulative fluid loss: 10% and 10-15%
[3]; [5]
  trehalose concentration with maximal effect on cumulative weight loss: 10% and 10-15%
[3]; first week (FIG. 19)
  effect of trehalose on weight loss: reduction was progressively effective for 5%, 10%-15% trehalose
[3]; second week (FIG. 19)
  effect of trehalose on weight loss: weight reduction seemed to plateau when trehalose was in the range of 5-15% trehalose
[3]; [6]
  trehalose concentration with lowest weight loss: 15%
[3]; [7]
  trehalose concentration with maximal effect on reducing fluid loss: 10%
[3]; soaked in 5% trehalose
  weight loss: ~15%
[3]; soaked in 10% trehalose
  weight loss: about 8%
[3]; soaked in 15% trehalose
  weight loss: about 10%
